Data as given in publication PMC8419995, “In vitro and in vivo efficacy of thiacloprid against Echinococcus multilocularis” (Parasites & Vectors, 2021).
Read-outs that look alike come from different tables or passages of the source.

Legend:
[1] = test system: collagen I and III, MMP1, MMP3, MMP9, MMP13; assay: Collagen and MMP expression in the host-lesion microenvironment (TEM, Sirius red, qPCR, western blot); type: in vivo; conditions: infected BALB/c mice, 6 weeks oral treatment
Procedure: The metacestodes were fixed with 4% paraformaldehyde and embedded in paraffin to make sections with a thickness of […]. The sections were dewaxed with water, stained with Picrosirius red for 10 min, rinsed and dehydrated with anhydrous ethanol, and sealed with neutral balsam after the xylene was transparent. Each section of 400× visual field image was randomly collected. The ratio of the area of all images collected to the area of the visual field was measured using the ImageJ analysis system, and the percentage of collagen fibre was calculated.
The variations in the microstructure of the protoscoleces or metacestodes were observed under an electron microscope. […] They were washed twice in PBS and then fixed for 3 h with 2.5% glutaraldehyde (pH = 7.2); next, they underwent 2 h post-fixation in 2% OsO4 (SPI-CHEM, West Chester, PA, USA). Subsequently, the samples were washed in double-distilled water and treated with 1% uranyl acetate for 25 min. After the samples were washed again in double-distilled water, dehydration was conducted in ethanol at continuous gradients (30–50–70–80–90–95–100%) over a period of 10 min. For SEM analysis, the dehydrated samples were dipped into hexamethyldisiloxane and then air-dried in a fume hood. The sample was observed under a Hitachi SU8100 scanning electron microscope (Tokyo, Japan) after gold spraying. For TEM analysis, the dehydrated samples passed through a dehydrating agent, and an epoxy resin (SPI-CHEM) permeated and polymerized at 60 °C overnight. A 50-nm ultra-thin section was prepared and then loaded on a 300-mesh copper grid. It was stained with uranyl acetate and lead citrate (SPI-CHEM). The sample was observed under a Hitachi HT7700 transmission electron microscope. To reduce the bias, electron microscopy was observed by professionals in the case of an unknown group.
Total RNA was extracted with TRIzol Reagent (Thermo Fisher Scientific, Waltham, MA, USA) according to the manufacturer’s instructions. The purity and concentrations of RNA were quantified using NanoDrop 2000 absorbance measurements at 260/280 nm. Total RNA was converted into cDNA sequences using the FastKing gDNA Dispelling RT SuperMix Kit (TIANGEN Biotech), and RT-qPCR was performed using the RealUniversal Color PreMix Kit (TIANGEN Biotech) on an ABI QuantStudio 5 system (Applied Biosystems, Waltham, MA, USA). The specific primers are shown in Additional file 4: Table S1. The PCR cycling conditions were as follows: pre-denaturation at 95 °C for 15 min followed by 40 cycles at 95 °C for 10 s and 60 °C for 34 s. The relative mRNA expression levels were quantified using the 2^−ΔΔCT method. RPS18 served as an internal control.
A total protein extraction kit (Solarbio) was used to extract cell or tissue total protein. The protein concentration was determined by the protein quantitative assay kit (Thermo Fisher Scientific). Then, electrophoresis was performed with 20–50 μg of protein sample. The protein was separated by sodium dodecyl sulfate polyacrylamide gel electrophoresis (SDS-PAGE) and transferred to a 0.22 μm PVDF membrane (Merck Millipore, Darmstadt, Germany). The PVDF membrane was blocked with 5% of nonfat powdered milk in Tris-buffered saline Tween 20 (TBST) for 1 h at room temperature. The membrane incubation with primary antibodies was performed at 4 °C overnight. The antibody information is listed in Additional file 5: Table S2. The membrane was washed with TBST and incubated with HRP-labeled secondary antibodies (1:5000, Abclonal, Wuhan, China) for 1 h at room temperature. Blotted membranes were visualized using enhanced chemiluminescence reagents (Thermo Fisher Scientific). Protein expression was depicted as the intensity of each protein relative to that of β-actin using ImageJ software.

[2] = test system: E. multilocularis metacestodes; assay: In vivo treatment of mice experimentally infected with E. multilocularis metacestodes; set-up: species or system Echinococcus multilocularis
Procedure: (§1) In vitro-grown metacestode vesicles were pressed through a 500 µm mesh and washed three times with sterile PBS. The parasite tissue was then taken up in an equal volume of sterile PBS. Each mouse was intraperitoneally injected with 200 μl suspension. Seven mice were injected with 200 μl PBS as the control group. Twenty-eight infected mice were randomly distributed into four groups (7 mice/group): the untreated group was not administered any drug; the ABZ group was treated with ABZ orally (100 mg/kg/day); and the Thia15 group and Thia30 group received thiacloprid orally (15 mg/kg/day and 30 mg/kg/day). Treatments of mice started 2 weeks post-infection, and treatments were administered daily for 6 weeks. After 6 weeks of treatment, whole blood via the orbital sinus was collected from mice and the animals were euthanized by CO2. Blood samples were incubated at 37 °C for 1 h and centrifuged at 3500 rpm for 10 min at 4 °C. The serum was harvested and stored at –20 °C for IL-2, IL-4, IL-10 and IgE detection. All metacestode tissues were collected, and the total wet weight of metacestodes per mice was determined. Furthermore, the content of cytokines in microcyst fluid was detected by enzyme-linked immunosorbent assay (ELISA). Several metacestode tissue specimens were processed for transmission electron microscopy (TEM) and histopathological experiments.
Tissues from experimental animals were washed in PBS and fixed in 4% paraformaldehyde at room temperature for […]. On the next day, they were dehydrated, embedded, and sliced into 5-μm sections. After dewaxing and dehydrating, sections were stained with hematoxylin for 2–5 min, and re-stained with eosin for 15 s. They were sealed with neutral gum and observed under a BX51 microscope (Olympus, Tokyo, Japan).
A Periodic Acid Schiff Stain Kit (Solarbio, Beijing, China) was used to show the PAS-positive laminated layer characteristic of E. multilocularis metacestodes. The section (5 μm) was dewaxed in xylene and rehydrated in 100%, 95%, 80%, and 75% alcohol baths. Staining was then carried out according to the kit instructions.

[3] = test system: IL-2, IL-4, IL-10 and IgE; assay: ELISA of cytokines and IgE in infected mice; type: in vivo; conditions: infected BALB/c mice, 6 weeks oral treatment
Procedure: as §1
ELISA was employed to detect serum IL-2, IL-4, IL-10 and IgE following the manufacturer's instructions. Mouse collagen I and collagen III ELISA kits were used to measure the levels of collagen I and collagen III in the cell culture supernatant after intervention with thiacloprid. All ELISA kits were provided by Elabscience Biotechnology Co., Ltd., Wuhan, China. The OD value at 450 nm was read with a Tecan Infinite M200 PRO enzyme reader (Männedorf, Switzerland), and the concentration was calculated according to the standard curve.

[4] = test system: acetylcholinesterase; assay: Acetylcholinesterase activity (Ellman) in extracts of protoscoleces, metacestodes and germinal cells; type: biochemical, Echinococcus multilocularis; conditions: extract; thiacloprid 5 μM, 37 °C 10 min; BW284c51 positive control
Procedure: The effects of thiacloprid on the acetylcholinesterase activity of E. multilocularis protoscoleces, metacestodes and germinal cells were determined according to a previously described method. The protoscoleces, metacestode and germinal cells were washed twice with PBS and homogenized with an electric homogenizer in precooled PBS. Centrifugation of the homogenates was performed at 100,000×g for 30 min. The protein concentration of the supernatant was determined by the modified Lowry method according to the instructions, and the concentration was adjusted to 2 mg/ml. Thiacloprid (5 μM) was added to the extract and incubated at 37 °C for 10 min. The extract was supplemented with 0.1% DMSO as control. Subsequently, acetylcholinesterase activity was assessed according to Ellman’s procedure using a microplate with 260 µl of 0.1 M PBS buffer pH 8.0, 10 µl of 10 mM dithiobisnitrobenzoic acid solution, 2.5 µl of 75 mM substrate (acetylthiocholine iodide) and 25 µl of the sample treated with thiacloprid. The OD increment was measured at 412 nm using an Infinite M200 PRO reader (Tecan). Each experiment was conducted three times. BW284c51 (CAS number: 402-40-4, Sigma) was used as a positive control.

[5] = test system: Human foreskin fibroblasts (HFF); assay: alamarBlue cytotoxicity assay, HFF; type: cell-based; conditions: Fibroblast, 120 h, 5 days
Procedure: (§2) An alamarBlue assay was used to assess the toxicity of thiacloprid to confluent and pre-confluent mammalian cells in vitro [29]. Human foreskin fibroblasts (HFF, Procell) and rat hepatoma cells (RH, Procell) were seeded into 96-well cell culture plates in DMEM supplemented with 10% FBS and 1% penicillin–streptomycin at 37 °C and 5% CO2. For detecting the growth inhibitory effects of confluent cells, HFF and RH cells were seeded at 10,000 cells per well and 50,000 cells per well, respectively. After overnight culture, thiacloprid or PZQ was added and diluted in serial concentrations (0, 0.6, 1.2, 2.5, 5, 10, 20, 40, 80 and 160 μM). For detecting growth inhibitory effects on proliferating cells, cells were seeded at 1000 (HFF) and 5000 (RH) cells per well. Thiacloprid was added after 5 h of cell attachment. To measure the viability of the cells after treatment for 5 days, the alamarBlue assay was employed and viability calculated as described previously.

[6] = test system: Reuber rat hepatoma (RH) cells; assay: alamarBlue cytotoxicity assay, RH cells; type: cell-based; conditions: 120 h, 5 days
Procedure: as §2

[7] = test system: E. multilocularis metacestodes; assay: PGI assay (phosphoglucose isomerase release) on metacestode vesicles; type: cell-based, Echinococcus multilocularis; conditions: Echinococcus multilocularis, 120 h, read-out: EC50 against E. multilocularis metacestode by the PGI assay
Procedure: The efficacy of thiacloprid against the E. multilocularis metacestode was evaluated by applying a phosphoglucose isomerase (PGI) assay that measures the release of the enzyme phosphoglucose isomerase upon physical impairment of metacestodes. In brief, medium without phenol red (DMEM, 1% penicillin/streptomycin sulfate, 2 mM L-glutamine) was added to the same volume of vesicles and distributed to 48-well (12–15 per vesicles) plates. Subsequently, metacestodes were incubated for 5 days with different concentrations (0, 0.06, 1.2, 2.5, 5, 10, 20, 40, 80 and 160 μM) of thiacloprid or praziquantel (PZQ), after which PGI release was quantified exactly as described in Stadelmann et al.. Triton X-100 (0.1% in PBS) was applied as a positive control (maximal release of vesicle fluid). Each condition was tested in biological triplicate. After 5 days of incubation, 200 μl medium supernatant was collected from each well and stored at − 20 °C until further measurements were performed. PGI measurements were performed as described earlier, except that an Infinite M200 PRO reader (Tecan, Männedorf, Switzerland) was used to measure the increase in absorbance at 340 nm. PGI activity was calculated using the EC50 calculator (https://www.aatbio.com/tools/ec50-calculator) from the linear regression of the enzyme reaction over time and presented as a percentage relative to the values obtained by treatment of vesicles with 0.1% Triton X-100.

[8] = test system: E. multilocularis germinal cells; assay: CellTiter-Glo viability assay on germinal cells; type: cell-based, Echinococcus multilocularis; conditions: Echinococcus multilocularis, 120 h; 5 days; CellTiter-Glo; read-out: IC50 against germinal cells
Procedure: To evaluate the activity of thiacloprid against parasitic stem cells, germinal cells from in vitro metacestode vesicles were investigated as described by Spiliotis et al.. Briefly, 20 units of cells were distributed into a black 384-well plate. Different concentrations of thiacloprid or PZQ (0, 0.06, 1.2, 2.5, 5, 10, 20, 40, 80 and 160 μM) were added to the cells. After culture at 37 °C for 5 days under a humid nitrogen atmosphere, 25 μl CellTiter-Glo containing 1% Triton X-100 was added. The plates were incubated at room temperature in the dark for 15 min. After the total destruction of the cellular aggregates, luminescence was measured using an Infinite M200 PRO reader (Tecan), and 0 μM values were set to 100% viability. The IC50 values were calculated using an online IC50 calculator after logit-log transformation. Four independent replicates were conducted.

CCCSc1ccc2nc(NC(=O)OC)[nH]c2c1 [ABZ, albendazole]
Collagen fiber deposition in the host-lesion microenvironment (TEM) [1]: can promote
mRNA expression of MMP1, MMP3, MMP9 and MMP13 in the microenvironment ([1]; qPCR): significantly inhibited
mRNA and protein expression levels of collagen I and III in the host-lesion microenvironment ([1]; qPCR, western blot): increased
Protein expression levels of MMP1, MMP3, MMP9 and MMP13 ([1]; western blot): decreased
HE staining of metacestodes from treated mice ([2]; 6 weeks oral treatment, thiacloprid 15 or 30 mg/kg/day, ABZ 100 mg/kg/day): germinal cells could still be observed
Wet weight of the metacestodes ([2]; infected BALB/c mice, ABZ 100 mg/kg/day orally, 6 weeks, untreated 6.49 ± 1.18 g): 1.85 ± 0.94 g
Expression of IL-2, IL-4 and IL-10 in serum compared with the untreated group [3]: consistent variations
Expression of IgE in serum compared with the untreated group [3]: consistent variations

C=CC[N+](C)(C)c1ccc(CCC(=O)CCc2ccc([N+](C)(C)CC=C)cc2)cc1.[Br-].[Br-] [BW284c51]
Acetylcholinesterase activity in protoscoleces, metacestode vesicles and germinal cells [4]: inhibited

O=C(C1CCCCC1)N1CC(=O)N2CCc3ccccc3C2C1 (stereo not drawn) [PZQ, praziquantel]
IC50 ([5]; confluent cells, read-out: IC50 on confluent HFF): 53.2 ± 11.1 µM
IC50 ([5]; pre-confluent cells, read-out: IC50 on pre-confluent HFF): 6.71 ± 1.88 µM
IC50 ([6]; confluent cells, read-out: IC50 on confluent RH cells): 25.3 ± 6.32 µM
IC50 ([6]; pre-confluent cells, read-out: IC50 on pre-confluent RH cells): 11.6 ± 3.52 µM
EC50 [7]: 7.41 ± 2.09 µM
IC50 [8]: 2.59 ± 0.33 µM
